Read-outs that look alike come from different tables or passages of the source.
Experiments:
HDAC (HeLa cell extract) = assay: Primary assay: deacetylase activity, HeLa cell extract as source of HDAC; type: biochemical, human
HeLa cells = assay: Secondary assay: cell proliferation WST-1, HeLa; type: cell-based; details: Homo sapiens, Table 2, 48 h, read-out: Cell Proliferation Inhibition WST-1 (IC50 unless otherwise specified) HeLa
human HDAC2 = molecular target: T1, human HDAC2 (Homo sapiens, UniProt Q92769); assay: Primary assay: deacetylase activity, recombinantly produced HDAC2; type: biochemical; details: Table 1; recombinant HDAC2; read-out: HDAC Inhibition (IC50 unless otherwise specified) HDAC2
T1 construct: Full length human HDAC2 was subcloned; Flag (carried over from the HDAC2-pFlag-CTC construct; inferred by analogy to HDAC1) (C); implied by Ni-NTA purification) (N); made in house; host or cells: SF9 insect cells (baculovirus)
T1 sequence (Q92769 whole entry): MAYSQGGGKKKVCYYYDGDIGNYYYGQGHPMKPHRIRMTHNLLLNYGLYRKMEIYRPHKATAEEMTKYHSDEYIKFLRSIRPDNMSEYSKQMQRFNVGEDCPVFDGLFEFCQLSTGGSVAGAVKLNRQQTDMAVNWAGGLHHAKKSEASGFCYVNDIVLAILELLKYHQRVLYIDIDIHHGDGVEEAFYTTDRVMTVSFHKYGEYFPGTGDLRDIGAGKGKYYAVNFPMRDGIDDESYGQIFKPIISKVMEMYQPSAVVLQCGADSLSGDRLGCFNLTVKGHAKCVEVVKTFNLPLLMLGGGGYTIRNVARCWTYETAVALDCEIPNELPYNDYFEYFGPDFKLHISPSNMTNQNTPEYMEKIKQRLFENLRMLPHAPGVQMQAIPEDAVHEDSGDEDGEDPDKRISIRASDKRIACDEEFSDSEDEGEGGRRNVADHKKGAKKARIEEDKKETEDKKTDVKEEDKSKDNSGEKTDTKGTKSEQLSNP

IC50 (HDAC (HeLa cell extract); Table 1, read-out: HDAC Inhibition (IC50 unless otherwise specified) HeLa): 89 nM
IC50 (HDAC (HeLa cell extract); comparative tables, HDAC inhibition, read-out: HeLa IC50): 89 nM
IC50 (HeLa cells): 8900 nM
IC50 (human HDAC2): 172 nM
melting point: 172 °C
Structure (SMILES): O=C(/C=C/c1cccc(NS(=O)(=O)c2ccccc2)c1)NO [PX089344, 3-(3-Benzenesulfonylamino-phenyl)N-hydroxy-acrylamide]
